{
  "source": "patent US20240270698A2",
  "about": "“NOVEL PYRIMIDINE DERIVATIVE AND USE THEREOF” (KOREA RESEARCH INSTITUTE OF CHEMICAL TECHNOLOGY, priority 2019, published 2024)",
  "key": {"HepG2 cancer cells": {"system": "HepG2 cancer cells", "assay": "Anticancer activity, cell viability by CCK-8, HepG2", "type": "cell-based", "settings": "HepG2, 10 μM, 72 hours", "experimental": "(§1) Compounds 1 to 119 synthesized in Example 1 according to the present disclosure were assayed for inhibitory activity against MLK3/LRRK2 enzymes and anticancer activity against HepG2/H[…] cancer cells, and the results are summarized in Table 1, below. Assay for anticancer activity was conducted as follows. HepG2 and H[…] cancer cells were purchased from the Korean Cell Line Bank and cultured according to the instruction provided thereby. One hundred μL of a culture of the cells were seeded at a density of 4,000 cells/well into 96-well plates. After 24 hours, the cells were treated with the compounds for 72 hours. Then, cell viability was assayed using CCK-8 and expressed as % of the control."}, "[1]": {"target": "T1, human recombinant MLK3 protein (Homo sapiens, UniProt Q16584)", "T1 construct": "purchased Eurofins", "T1 sequence (Q16584 whole entry)": "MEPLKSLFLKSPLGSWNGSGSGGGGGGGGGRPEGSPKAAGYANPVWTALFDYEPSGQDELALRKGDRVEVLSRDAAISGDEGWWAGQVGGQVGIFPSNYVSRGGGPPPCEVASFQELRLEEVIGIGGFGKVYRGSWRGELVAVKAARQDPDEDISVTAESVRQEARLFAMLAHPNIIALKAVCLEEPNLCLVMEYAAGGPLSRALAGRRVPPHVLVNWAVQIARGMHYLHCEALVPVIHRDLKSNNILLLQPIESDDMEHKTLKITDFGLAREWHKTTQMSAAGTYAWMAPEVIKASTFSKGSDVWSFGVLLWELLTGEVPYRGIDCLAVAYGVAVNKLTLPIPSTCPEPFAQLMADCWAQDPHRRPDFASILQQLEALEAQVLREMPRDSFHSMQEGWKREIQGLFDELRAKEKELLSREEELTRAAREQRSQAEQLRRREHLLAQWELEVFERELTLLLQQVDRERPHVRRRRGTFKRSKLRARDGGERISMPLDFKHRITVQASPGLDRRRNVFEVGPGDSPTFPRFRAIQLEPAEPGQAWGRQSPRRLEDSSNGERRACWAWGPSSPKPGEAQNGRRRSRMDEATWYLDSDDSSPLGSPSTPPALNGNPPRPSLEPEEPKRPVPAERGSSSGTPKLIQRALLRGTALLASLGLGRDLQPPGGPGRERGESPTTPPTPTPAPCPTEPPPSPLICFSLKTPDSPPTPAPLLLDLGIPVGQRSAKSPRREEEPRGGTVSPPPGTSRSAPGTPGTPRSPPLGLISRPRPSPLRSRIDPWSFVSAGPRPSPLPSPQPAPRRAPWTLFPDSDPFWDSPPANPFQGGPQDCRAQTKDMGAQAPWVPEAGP", "assay": "MLK3 kinase activity assay (Eurofins, gamma-33P-ATP, filtermat scintillation counting)", "type": "biochemical", "settings": "human recombinant MLK3, 120 minutes at room temperature", "experimental": "(§2) Compounds 1 to 119 synthesized in Example 1 according to the present disclosure were assayed for inhibitory activity against MLK3/LRRK2 enzymes and anticancer activity against HepG2/HS746T cancer cells, and the results are summarized in Table 1, below.\n(§3) Inhibitory activity against MLK3 and LRRK2 enzymes was evaluated in Eurofins. In brief, human recombinant MLK3 protein was mixed with the compounds in a reaction buffer (8 mM MOPS (pH 7.0), 0.2 mM EDTA, 0.33 mg/mL myelin basic protein, 5 mM DTT) to which a mixture of 10 mM magnesium acetate and gamma-33P-ATP was then added before incubation at room temperature for 120 minutes. Afterward, the reaction was terminated with 0.5% phosphoric acid. Ten μL of the total mixture was spotted onto a P30 filtermat which was then washed four times for 4 minutes with 0.425% phosphoric acid and once in methanol prior to scintillation counting. Values for the activity of MLK3 were expressed as % of the control. For the activity of LRRK2, human recombinant LRRK2 protein was mixed with the compounds in a reaction buffer (50 mM HEPES (pH 8.0), 0.2 mM EDTA, 0.01% Brij-35, 1% (w/v) BSA, 5 mM DTT, 250 uM substrate peptide RLGRDKYKTLRQIRQ) and then reacted with a mixture of 10 mM magnesium acetate and gamma-33P-ATP at room temperature for 40 minutes. Afterward, the reaction was terminated with 0.5% phosphoric acid. Ten μL of the total mixture was spotted onto a P30 filtermat which was then washed four times for 4 minutes with 0.425% phosphoric acid and once in methanol prior to scintillation counting. Values for the activity of LRRK2 were expressed as % of the control."}, "HS746T cancer cells": {"system": "HS746T cancer cells", "assay": "Anticancer activity, cell viability by CCK-8, HS746T", "type": "cell-based", "settings": "72 hours", "experimental": "as §1"}, "[2]": {"target": "T2, human recombinant LRRK2 protein (Homo sapiens, UniProt Q5S007)", "T2 construct": "purchased Eurofins", "T2 sequence (Q5S007 whole entry)": "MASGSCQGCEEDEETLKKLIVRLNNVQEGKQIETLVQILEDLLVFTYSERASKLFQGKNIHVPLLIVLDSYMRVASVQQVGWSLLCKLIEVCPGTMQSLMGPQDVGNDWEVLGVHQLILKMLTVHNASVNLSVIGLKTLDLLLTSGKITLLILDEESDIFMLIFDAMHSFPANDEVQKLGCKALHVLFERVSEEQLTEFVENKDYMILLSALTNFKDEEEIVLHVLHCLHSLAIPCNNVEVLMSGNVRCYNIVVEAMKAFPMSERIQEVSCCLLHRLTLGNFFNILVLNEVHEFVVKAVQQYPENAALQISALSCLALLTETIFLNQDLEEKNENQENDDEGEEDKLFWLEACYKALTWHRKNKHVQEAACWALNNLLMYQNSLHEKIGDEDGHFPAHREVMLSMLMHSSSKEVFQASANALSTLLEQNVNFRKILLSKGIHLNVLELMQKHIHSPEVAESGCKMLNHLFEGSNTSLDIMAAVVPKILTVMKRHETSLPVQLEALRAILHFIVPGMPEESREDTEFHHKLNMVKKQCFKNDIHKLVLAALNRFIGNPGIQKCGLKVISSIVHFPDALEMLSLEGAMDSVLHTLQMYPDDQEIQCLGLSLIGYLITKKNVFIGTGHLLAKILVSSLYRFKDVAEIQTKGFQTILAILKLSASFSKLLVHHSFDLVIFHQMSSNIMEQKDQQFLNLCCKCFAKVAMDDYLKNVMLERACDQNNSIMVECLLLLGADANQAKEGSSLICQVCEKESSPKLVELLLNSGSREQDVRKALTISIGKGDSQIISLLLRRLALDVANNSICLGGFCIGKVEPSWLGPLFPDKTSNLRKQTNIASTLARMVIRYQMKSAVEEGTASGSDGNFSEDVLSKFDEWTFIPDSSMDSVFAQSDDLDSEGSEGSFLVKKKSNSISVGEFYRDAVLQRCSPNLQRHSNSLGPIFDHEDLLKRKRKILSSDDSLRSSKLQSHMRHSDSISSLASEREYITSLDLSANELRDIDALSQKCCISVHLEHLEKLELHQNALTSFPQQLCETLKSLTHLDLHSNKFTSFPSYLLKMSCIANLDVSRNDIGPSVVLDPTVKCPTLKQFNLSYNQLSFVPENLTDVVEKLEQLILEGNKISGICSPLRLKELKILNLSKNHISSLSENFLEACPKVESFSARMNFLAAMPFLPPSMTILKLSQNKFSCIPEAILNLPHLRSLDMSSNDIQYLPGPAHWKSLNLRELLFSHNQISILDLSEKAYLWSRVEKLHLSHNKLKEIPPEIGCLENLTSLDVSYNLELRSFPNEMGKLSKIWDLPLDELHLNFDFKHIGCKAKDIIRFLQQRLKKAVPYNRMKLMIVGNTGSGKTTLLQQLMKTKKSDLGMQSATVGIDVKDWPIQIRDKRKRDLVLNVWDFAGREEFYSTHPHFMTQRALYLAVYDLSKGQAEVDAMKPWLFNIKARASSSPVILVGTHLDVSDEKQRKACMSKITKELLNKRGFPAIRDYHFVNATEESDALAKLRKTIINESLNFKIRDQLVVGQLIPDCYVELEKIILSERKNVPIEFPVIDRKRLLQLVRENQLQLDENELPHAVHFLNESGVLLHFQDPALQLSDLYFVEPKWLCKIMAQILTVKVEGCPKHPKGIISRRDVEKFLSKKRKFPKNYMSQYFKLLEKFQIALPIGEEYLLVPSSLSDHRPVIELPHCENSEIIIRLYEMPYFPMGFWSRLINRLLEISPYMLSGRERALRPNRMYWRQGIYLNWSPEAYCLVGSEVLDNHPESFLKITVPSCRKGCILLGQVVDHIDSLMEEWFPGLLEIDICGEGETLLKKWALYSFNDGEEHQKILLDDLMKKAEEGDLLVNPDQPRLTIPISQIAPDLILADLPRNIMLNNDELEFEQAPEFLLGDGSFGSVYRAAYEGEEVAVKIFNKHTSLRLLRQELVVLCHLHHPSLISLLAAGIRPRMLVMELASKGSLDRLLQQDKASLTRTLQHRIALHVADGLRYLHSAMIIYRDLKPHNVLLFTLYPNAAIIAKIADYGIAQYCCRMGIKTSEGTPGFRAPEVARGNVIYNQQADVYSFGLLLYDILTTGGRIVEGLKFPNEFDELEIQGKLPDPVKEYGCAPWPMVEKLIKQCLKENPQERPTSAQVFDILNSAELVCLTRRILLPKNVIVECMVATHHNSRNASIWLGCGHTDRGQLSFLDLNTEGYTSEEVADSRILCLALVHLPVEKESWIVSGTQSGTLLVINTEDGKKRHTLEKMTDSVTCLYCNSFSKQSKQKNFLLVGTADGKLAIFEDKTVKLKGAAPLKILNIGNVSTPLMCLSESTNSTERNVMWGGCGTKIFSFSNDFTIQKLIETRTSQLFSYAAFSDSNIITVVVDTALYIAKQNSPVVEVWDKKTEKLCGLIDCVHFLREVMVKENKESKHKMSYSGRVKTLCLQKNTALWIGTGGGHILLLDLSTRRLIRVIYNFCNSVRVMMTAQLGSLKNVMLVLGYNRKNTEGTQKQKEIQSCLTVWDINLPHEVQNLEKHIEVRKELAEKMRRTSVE", "assay": "LRRK2 kinase activity assay (Eurofins, gamma-33P-ATP, filtermat scintillation counting)", "type": "biochemical", "settings": "human recombinant LRRK2, 40 minutes at room temperature", "experimental": "as §2, §3"}},
  "data": [
    {"compound": "Cc1ccc(Nc2ncc(Cl)c(Nc3ccccc3P(C)(C)=O)n2)c2[nH]cc(C#N)c12", "note": "[compound 70, 7-((5-chloro-4-((2-(dimethylphosphoryl)phenyl)amino)pyrimidin-2-yl)amino)-4-methyl-1H-indole-3-carbonitrile]", "values": [
      {"measurement": "Cell viability (% of Con. 10 μM) HepG2", "setting": "HepG2 cancer cells", "value": "30 % of Con."},
      {"measurement": "IC50", "setting": "[1]", "value": "10 to 100", "unit": "nM"},
      {"measurement": "Cell viability (% of Con. 10 μM) HS746T", "setting": "HS746T cancer cells", "value": "25 % of Con."},
      {"measurement": "IC50", "setting": "[2]", "value": "1 to 10", "unit": "nM"}
    ]},
    {"compound": "CP(C)(=O)c1ccccc1Nc1nc(Nc2ccc3c(c2)CCN(C(=O)C(F)(F)F)C3)ncc1Cl", "note": "[compound 48, 1-(6-((5-Chloro-4-((2-(dimethylphosphoryl)phenyl)amino)pyrimidin-2-yl)amino)-3,4-dihydroisoquinolin-2(1H)-yl)-2,2,2-trifluoroethan-1-one]", "values": [
      {"measurement": "Cell viability (% of Con. 10 μM) HepG2", "setting": "HepG2 cancer cells", "value": "37 % of Con."},
      {"measurement": "IC50", "setting": "[1]", "value": "1 to 10", "unit": "nM"},
      {"measurement": "Cell viability (% of Con. 10 μM) HS746T", "setting": "HS746T cancer cells", "value": "9 % of Con."},
      {"measurement": "IC50", "setting": "[2]", "value": "1 to 10", "unit": "nM"}
    ]},
    {"compound": "CP(C)(=O)c1ccccc1Nc1nc(Nc2ccc3[nH]nc(-c4ccc(CO)o4)c3c2)ncc1Cl", "note": "[compound 101, (2-((5-chloro-2-((3-(5-(hydroxymethyl)furan-2-yl)-1H-indazol-5-yl)amino)pyrimidin-4-yl)amino)phenyl)dimethylphosphine oxide]", "values": [
      {"measurement": "Cell viability (% of Con. 10 μM) HepG2", "setting": "HepG2 cancer cells", "value": "56 % of Con."},
      {"measurement": "IC50", "setting": "[1]", "value": "1 to 10", "unit": "nM"},
      {"measurement": "Cell viability (% of Con. 10 μM) HS746T", "setting": "HS746T cancer cells", "value": "13 % of Con."},
      {"measurement": "IC50", "setting": "[2]", "value": "10 to 100", "unit": "nM"}
    ]},
    {"compound": "CC(=O)c1ccc(-c2n[nH]c3ccc(Nc4ncc(Cl)c(Nc5ccccc5P(C)(C)=O)n4)cc23)cc1", "note": "[compound 106, 1-(4-(5-((5-chloro-4-((2-(dimethylphosphoryl)phenyl)amino)pyrimidin-2-yl)amino)-1H-indazol-3-yl)phenyl)ethan-1-one]", "values": [
      {"measurement": "Cell viability (% of Con. 10 μM) HepG2", "setting": "HepG2 cancer cells", "value": "75 % of Con."},
      {"measurement": "IC50", "setting": "[1]", "value": "1 to 10", "unit": "nM"},
      {"measurement": "Cell viability (% of Con. 10 μM) HS746T", "setting": "HS746T cancer cells", "value": "17 % of Con."},
      {"measurement": "IC50", "setting": "[2]", "value": "10 to 100", "unit": "nM"}
    ]},
    {"compound": "CP(C)(=O)c1ccccc1Nc1nc(Nc2ccc3[nH]nc(-c4cccc(C#N)c4)c3c2)ncc1Cl", "note": "[compound 116, 3-(5-((5-Chloro-4-((2-(dimethylphosphoryl)phenyl)amino)pyrimidin-2-yl)amino)-1H-indazol-3-yl)benzonitrile]", "values": [
      {"measurement": "Cell viability (% of Con. 10 μM) HepG2", "setting": "HepG2 cancer cells", "value": "32 % of Con."},
      {"measurement": "IC50", "setting": "[1]", "value": "1 to 10", "unit": "nM"},
      {"measurement": "Cell viability (% of Con. 10 μM) HS746T", "setting": "HS746T cancer cells", "value": "19 % of Con."},
      {"measurement": "IC50", "setting": "[2]", "value": "10 to 100", "unit": "nM"}
    ]},
    {"compound": "CC1(C)CN(C(=O)C(F)(F)F)Cc2cc(Nc3ncc(Cl)c(Nc4ccccc4P(C)(C)=O)n3)ccc21", "note": "[compound 50, 1-(7-((5-Chloro-4-((2-(dimethylphosphoryl)phenyl)amino)pyrimidin-2-yl)amino)-4,4-dimethyl-3,4-dihydroisoquinolin-2(1H)-yl)-2,2,2-trifluoroethan-1-one]", "values": [
      {"measurement": "Cell viability (% of Con. 10 μM) HepG2", "setting": "HepG2 cancer cells", "value": "20 % of Con."},
      {"measurement": "IC50", "setting": "[1]", "value": "1 to 10", "unit": "nM"},
      {"measurement": "Cell viability (% of Con. 10 μM) HS746T", "setting": "HS746T cancer cells", "value": "2 % of Con."},
      {"measurement": "IC50", "setting": "[2]", "value": "1 to 10", "unit": "nM"}
    ]},
    {"compound": "CP(C)(=O)c1ccccc1Nc1nc(Nc2ccc3c(c2)CNC3)ncc1Cl", "note": "[compound 73, (2-((5-Chloro-2-(isoindolin-5-ylamino)pyrimidin-4-yl)amino)phenyl)dimethylphosphine oxide]", "values": [
      {"measurement": "Cell viability (% of Con. 10 μM) HepG2", "setting": "HepG2 cancer cells", "value": "19 % of Con."},
      {"measurement": "IC50", "setting": "[1]", "value": "1 to 10", "unit": "nM"},
      {"measurement": "Cell viability (% of Con. 10 μM) HS746T", "setting": "HS746T cancer cells", "value": "0.5 % of Con."},
      {"measurement": "IC50", "setting": "[2]", "value": "1 to 10", "unit": "nM"}
    ]},
    {"compound": "CP(C)(=O)c1ccccc1Nc1nc(Nc2ccc3nc(S)sc3c2)ncc1Cl", "note": "[compound 23, (2-((5-Chloro-2-((2-mercaptobenzo[d]thiazol-6-yl)amino)pyrimidin-4-yl)amino)phenyl)dimethylphosphine oxide]", "values": [
      {"measurement": "Cell viability (% of Con. 10 μM) HepG2", "setting": "HepG2 cancer cells", "value": "27 % of Con."},
      {"measurement": "IC50", "setting": "[1]", "value": "10 to 100", "unit": "nM"},
      {"measurement": "Cell viability (% of Con. 10 μM) HS746T", "setting": "HS746T cancer cells", "value": "26 % of Con."},
      {"measurement": "IC50", "setting": "[2]", "value": "10 to 100", "unit": "nM"}
    ]},
    {"compound": "CC(C)Oc1cc(F)cc(-c2n[nH]c3ccc(Nc4ncc(Cl)c(Nc5ccccc5P(C)(C)=O)n4)cc23)c1", "note": "[compound 115, (2-((5-Chloro-2-((3-(3-fluoro-5-isopropoxyphenyl)-1H-indazol-5-yl)amino)pyrimidin-4-yl)amino)phenyl)dimethylphosphine oxide]", "values": [
      {"measurement": "Cell viability (% of Con. 10 μM) HepG2", "setting": "HepG2 cancer cells", "value": "50 % of Con."},
      {"measurement": "IC50", "setting": "[1]", "value": "1 to 10", "unit": "nM"},
      {"measurement": "Cell viability (% of Con. 10 μM) HS746T", "setting": "HS746T cancer cells", "value": "10 % of Con."},
      {"measurement": "IC50", "setting": "[2]", "value": "1 to 10", "unit": "nM"}
    ]}
  ]
}
